Measured values taken from patent US20150150159A1, “METHOD FOR CONTROLLING FUNGAL DISEASES IN MUSHROOM PRODUCTION” (DSM IP ASSETS B.V., priority 2012, published 2015).

Tested on: Trichoderma harzianum
Assay: In vitro antifungal activity assay in 96-well microtiter plates (mould growth reduction, Colby synergy)
Assay type: cell-based
Experimental: The following compositions are tested: • Control (no active ingredient), • 1.25 ppm natamycin (DSM Food Specialties, Delft, The Netherlands), • 0.5, 1.0, 1.25 or 1.5 ppm thiabendazole, • 1.25 ppm natamycin+0.5 ppm thiabendazole, • 1.25 ppm natamycin+1.0 ppm thiabendazole, • 1.25 ppm natamycin+1.25 ppm thiabendazole, • 1.25 ppm natamycin+1.5 ppm thiabendazole. […] Subsequently, 100 μl of a Trichoderma harzianum suspension prepared in PCB medium is used to inoculate each well with 5.0×10^3 spores/ml. […] After incubation of the microtiter plates for 3, 5, 10 and 17 days at 25° C., the in vitro antifungal activity (%) of the individual active ingredients was assessed by calculating the reduction in mould growth observed in the presence of the active ingredient in comparison to the mould growth observed in the absence of the active ingredient. The expected antifungal activity (E in %) of the active ingredient combination was calculated according to the Colby equation (Colby, 1967): E=X+Y−[(X·Y)/100] wherein X and Y are the observed antifungal activities (in %) of the individual active ingredients X and Y, respectively. If the observed antifungal activity (O in %) of the combination exceeds the expected antifungal activity (E in %) of the combination and the resulting synergy factor O/E is thus >1.0, the combined application of the active ingredients leads to a synergistic antifungal effect.

Measured: Observed antifungal activity O (%)

C[C@@H]1C/C=C/C=C/C=C/C=C/[C@H](O[C@@H]2O[C@H](C)[C@@H](O)[C@H](N)[C@@H]2O)C[C@@H]2O[C@](O)(C[C@@H](O)C[C@H]3O[C@@H]3/C=C/C(=O)O1)C[C@H](O)[C@H]2C(=O)O [Natamycin, natamycin]
0%: Natamycin 1.25 ppm, 3 days incubation at 25° C. | Natamycin 1.25 ppm, 5 days incubation at 25° C. | Natamycin 1.25 ppm, 10 days incubation at 25° C. | Natamycin 1.25 ppm, 17 days incubation at 25° C.

c1ccc2[nH]c(-c3cscn3)nc2c1 [Thiabendazole, 4-(1H-1,3-benzodiazol-2-yl)-1,3-thiazole]
0%: Thiabendazole 0.5 ppm, 3 days incubation at 25° C. | Thiabendazole 1.0 ppm, 5 days incubation at 25° C. | Thiabendazole 1.25 ppm, 5 days incubation at 25° C. | Thiabendazole 1.25 ppm, 10 days incubation at 25° C. | Thiabendazole 1.5 ppm, 10 days incubation at 25° C. | Thiabendazole 1.5 ppm, 17 days incubation at 25° C.
